Drawing on ChEMBL document CHEMBL1124582, “Design of potential anti-HIV agents. 1. Mannosidase inhibitors” (J Med Chem, 1989), this text covers IC50 for four molecules.

This assay in a line: Inhibitory activity against Mannosidase in rat liver.

One may read the IC50 as the point on the concentration scale where inhibition reaches its midpoint. `OC1CN2CCCCC2C1O` (centres undefined) came in with a concentration for half-maximal inhibition (IC50) of 7500 µM.
For `O[C@H]1[C@H]2[C@@H](O)CCCN2C[C@H]1O` the value was ~50 µM.
Consider `O[C@@H]1[C@H]2[C@@H](O)CCCN2C[C@H]1O`, for which the 50% inhibitory concentration (IC50) is ~50 µM.
Then `O[C@H]1[C@@H]2[C@H](O)CCCN2C[C@H]1O`, with ~10 µM.
